Measurements: PubChem BioAssay AID1996
In brackets after ≈: the same amount, converted by molar mass.

Conditions: buffer; pH 7.4; 200.0 µM

| SMILES | solubility kinetic |
| --- | --- |
| COc1cccc(C(=O)N(C)C(C)c2nc3ccccc3s2)c1 (configuration not stated) | > 49 µg/mL |
| NC(=O)c1ccc(NC(=O)COC(=O)CCC2CCCCC2)cc1 | 9.1 µg/mL (≈ 27.4 µM) |
| Br.c1ccc(NC2=NCCCS2)cc1 | > 41 µg/mL |
| Cc1ccccc1CN1CCN(CC(=O)NC(C)c2ccccc2)CC1 (configuration not stated) | 47.8 µg/mL (≈ 136 µM) |
| CC1CCN(C(=O)COC(=O)c2cccs2)CC1 | > 40.1 µg/mL |
| O=C(NNC(=O)C1CCN(c2ncccn2)CC1)c1ccncc1 | > 49 µg/mL |
| COc1ccccc1/C=C/C(=O)NC(=S)Nc1ccccn1 | 1.3 µg/mL (≈ 4.15 µM) |
| CCOC(=O)C1(Cc2ccccc2)CCCN(C(=O)C=C(C)C)C1 (configuration not stated) | 46.8 µg/mL (≈ 142 µM) |
| Cc1ccc2[nH]c3c(NCc4ccccc4)ncnc3c2c1 | 4.4 µg/mL (≈ 15.3 µM) |
| Cc1ccc(C23CC4CC(CC(C(N)=O)(C4)C2)C3)cc1 | 16.6 µg/mL (≈ 61.6 µM) |
| CN(C(=O)CCn1c(=S)oc2ccccc21)C1CCCCC1 | > 47.8 µg/mL |
| Cc1ccc(C(=O)ONC(=O)c2ccc(Cl)cc2)cc1[N+](=O)[O-] | 46.8 µg/mL (≈ 140 µM) |
| CN1CC(=O)N(CC(=O)Nc2ccc3c(c2)CCC3)C1=O | > 43.1 µg/mL |
| COc1ccc(/C(C)=N/NC(=O)CNC(=O)c2ccco2)cc1 | > 47.3 µg/mL |
| COC(=O)C1=C(C)NC(=O)NC1c1ccccc1Cl (configuration not stated) | 18.5 µg/mL (≈ 65.9 µM) |
| CCOC(=O)c1csc(-c2ccc3c(c2)CCO3)n1 | 32.3 µg/mL (≈ 117 µM) |
| c1cc(CCCc2ccncc2)ccn1 | > 29.7 µg/mL |
| Cl.c1ccc(CNc2c3c(nc4ccccc24)CCC3)cc1 | > 46.6 µg/mL |
| CC(=Nc1ccccc1N)c1c(O)n(C)c(=O)n(C)c1=O | 3.6 µg/mL (≈ 12.5 µM) |
| CC(C)N(Cc1ccccc1)C(=O)COc1ccccc1 | 36.6 µg/mL (≈ 129 µM) |
| CCn1c(SCc2ccc(OC)c(F)c2)nc2ccccc2c1=O | < 0.4 µg/mL |
| O=C(Nc1nsc(-c2ccccc2)n1)c1ccc(F)cc1 | 32.2 µg/mL (≈ 108 µM) |
| CCCCCc1c(O)nc(SCCN(C)C)[nH]c1=O.Cl | > 48.3 µg/mL |
| COC(=O)c1ccc(CN2C(=O)C3CCCCC3C2=O)o1 (configuration not stated) | > 43.7 µg/mL |
| COc1ccccc1C(=O)Nc1nsc(-c2ccccc2)n1 | 8.8 µg/mL (≈ 28.3 µM) |

| SMILES | solubility kinetic |
| --- | --- |
| CC(C)NCC(O)COCCOc1ccc(Cl)cc1.Cl (configuration not stated) | > 48.6 µg/mL |
| CCOC(=O)c1[nH]c2cc3c(cc2c1NC(=O)CN1CCCC1)OCO3 | 18 µg/mL (≈ 50.1 µM) |
| Cc1nc(NC(=O)/C=C/c2ccccc2)sc1C(=O)NCCO | 12.9 µg/mL (≈ 38.9 µM) |
| Cc1onc(-c2c(Cl)cccc2Cl)c1C(=O)NN1CCCCCC1 | > 55.2 µg/mL |
| NC(=O)COC(=O)CSc1ccc2ccccc2c1 | > 41.3 µg/mL |
| O=C(NCCCn1ccnc1)/C(=C/c1cccnc1)NC(=O)c1ccco1 | > 54.8 µg/mL |
| Cc1ccc(S(=O)(=O)NCCN2CCOCC2)c(C)c1.Cl | > 50.2 µg/mL |
| CCCn1c(=N)n(CC(O)c2ccc(C)cc2)c2ccccc21.Cl (configuration not stated) | > 51.9 µg/mL |
| CCc1ccc(NC(=O)Nc2cnccn2)cc1 | 9.9 µg/mL (≈ 40.9 µM) |
| O=C(Nc1ccc2c(c1)OCO2)c1ccccn1 | 31.4 µg/mL (≈ 130 µM) |
| CCc1ccc(S(=O)(=O)NCc2cccs2)cc1 | 35.6 µg/mL (≈ 127 µM) |
| CCCCn1c(N)c(N(C)C(=O)C2CC(=O)N(Cc3ccco3)C2)c(=O)[nH]c1=O (configuration not stated) | > 60.5 µg/mL |
| CCOC(=O)c1nc(Nc2ccccc2CC)c2ccccc2n1 | > 48.2 µg/mL |
| O=C(COC(=O)c1ccc(Cl)cc1)NC(=O)NC1CCCC1 | 5.7 µg/mL (≈ 17.6 µM) |
| COc1ccc(C(=O)NC2CC(C)(C)NC(C)(C)C2)cc1OC | > 48.1 µg/mL |
| Cc1ccsc1C(=O)NCc1ccccc1Cl | > 39.9 µg/mL |
| CC(C)(C)NC(=O)C(=O)NC(=O)c1c(F)cccc1Cl | 36.2 µg/mL (≈ 120 µM) |
| Cc1cnc(C(=O)NC(Cc2ccccc2)c2ccccc2)cn1 (configuration not stated) | 0.9 µg/mL (≈ 2.84 µM) |
| COc1ccccc1N1CCN(CC(=O)Nc2nccs2)CC1 | > 49.9 µg/mL |
| CN1CCN(c2nc3c(c(=O)n(C)c(=O)n3C)n2Cc2ccccc2F)CC1 | > 58 µg/mL |
| COc1ccc(N(CC(=O)Nc2cccnc2)S(=O)(=O)c2ccccc2)cc1Cl | 34.2 µg/mL (≈ 79.2 µM) |
| O=C(COC(=O)COc1ccc2c(c1)CCC2)Nc1ccccc1C(F)(F)F | 5.3 µg/mL (≈ 13.5 µM) |
| Cn1c(=O)c2c(nc(SCCN3CCOCC3)n2C)n(C)c1=O | > 50.9 µg/mL |
| O=C(CCl)Nc1nccs1 | > 26.5 µg/mL |
| Cc1cc(Cl)ccc1OC(C)C(=O)NC(C)C1CCCO1 (configuration not stated) | > 46.8 µg/mL |

| SMILES | solubility kinetic |
| --- | --- |
| CC(C)[C@H](NC(=O)c1ccccc1Cl)C(=O)OCC(=O)NC(=O)NCc1ccco1 | 40.1 µg/mL (≈ 92 µM) |
| Cc1ccc(C)c(NC(=O)CCOc2ccccc2)c1 | 3.7 µg/mL (≈ 13.7 µM) |
| CC(=O)N/C(=C\c1ccccc1)C(=O)OCc1ccc(C)cc1 | > 46.4 µg/mL |
| Cc1ccc(S(=O)(=O)Nc2ccccc2CNC2CCCCC2)cc1 | > 53.8 µg/mL |
| CCCCNCc1cc2ccccc2o1.Cl | 31.7 µg/mL |
| CC1=CCC(C(=O)O)C(C(=O)NC2CCCCC2)C1 (configuration not stated) | > 39.8 µg/mL |
| Cc1c(C(=O)N2C[C@@H](C)O[C@@H](C)C2)oc2c(F)cccc12 | > 43.7 µg/mL |
| CNC(=O)c1ccc(NC(=O)/C=C/c2cccc(F)c2)cc1 | 1.4 µg/mL (≈ 4.69 µM) |
| Cc1ccc(CNC(=O)c2ccc[nH]2)cc1 | > 32.1 µg/mL |
| CN(C(=O)C(Cl)Cl)c1ccc(OC(=O)c2ccco2)cc1 | > 49.2 µg/mL |
| CCOc1ccccc1NS(=O)(=O)c1ccc2[nH]c(=O)ccc2c1 | 48.3 µg/mL (≈ 140 µM) |
| COCCn1c(SCC(=O)NC(=O)NC2CCCCC2)nc2ccccc2c1=O | 4.6 µg/mL (≈ 11 µM) |
| CC(=O)N(Cc1ccc(Cl)cc1)c1cnccn1 | > 39.3 µg/mL |
| COc1c(C)cc(Br)cc1C(=O)Nc1ccccc1C | < 0.7 µg/mL |
| COc1ccc(C(C)=O)cc1Cn1nc(C)c([N+](=O)[O-])c1C | > 45.5 µg/mL |
| COc1ccccc1CNC(=O)c1cc2ccccc2o1 | 10.1 µg/mL (≈ 35.9 µM) |
| O=C(NCCCNC(=O)c1ccco1)c1ccc(Cl)cc1 | > 46 µg/mL |
| Cc1cc(C(=O)Nc2ccccc2C)c2ccccc2n1 | 34.7 µg/mL (≈ 126 µM) |
| COc1ccc(C2=NOC(C(=O)NCc3cccnc3)C2)cc1OC (configuration not stated) | > 51.2 µg/mL |
| CN(Cc1ccccc1)C(=O)COc1ccc2ccccc2c1 | < 0.7 µg/mL |
| CCOC(=O)C1CCCN(CCC(=O)Nc2cc(C)cc(C)c2)C1 (configuration not stated) | > 49.9 µg/mL |
| CC(C)CC1(C)NC(=O)N(CC(=O)Nc2ccc3c(c2)CCC3)C1=O (configuration not stated) | > 51.5 µg/mL |
| Cc1ccc(Nc2ccc([N+](=O)[O-])ccc2=O)cc1 | < 0.3 µg/mL |
| CC1CCN(C(=O)CSc2nc3ccccc3c(=O)[nH]2)CC1 | > 47.6 µg/mL |
| COc1ccc2cc(Br)ccc2c1CC(=O)N1CCCC1 | 3.2 µg/mL (≈ 9.19 µM) |

| SMILES | solubility kinetic |
| --- | --- |
| O=C(Cn1cnc2ccccc21)OCC(=O)N1CCCCC1 | > 45.2 µg/mL |
| C=CCn1c(C)nc2c(sc3nc4c(cc32)COC(C)(C)C4)c1=O | > 51.2 µg/mL |
| COC(=O)c1ccsc1NC(=O)c1ccco1 | 3.2 µg/mL (≈ 12.7 µM) |
| CCOc1ccccc1NC(=O)C1COc2ccccc2O1 (configuration not stated) | < 0.6 µg/mL |
| O=C(COC(=O)c1ccccc1)NC1CCCC1 | > 37.1 µg/mL |
| Cc1ccc(N=C2NC(=O)/C(=C/c3cccnc3)S2)c(C)c1 | 4.8 µg/mL (≈ 15.5 µM) |
| COc1nc(Nc2ccccc2)nc(OC)n1 | > 34.8 µg/mL |
| COc1ccccc1NC(=O)COC(=O)c1cc(C)oc1C | 6.7 µg/mL (≈ 22.1 µM) |
| Cn1cc([N+](=O)[O-])c(C(=O)NCc2ccco2)n1 | > 37.5 µg/mL |
| CCc1noc(C)c1C(=O)OCC(=O)Nc1cccc(C)c1 | 20.4 µg/mL (≈ 67.5 µM) |
| CCc1ccc(NC(=O)NC(C)c2ccc3c(c2)OCO3)cc1 (configuration not stated) | 1 µg/mL (≈ 3.2 µM) |
| CC(=O)Nc1ccc(NC(=O)Nc2ccccc2C)cc1 | 1.8 µg/mL (≈ 6.35 µM) |
| Cc1ccc(C)c(C(=O)NC(C)CCc2ccccc2)c1 (configuration not stated) | 0.7 µg/mL (≈ 2.49 µM) |
| CN1C[C@@H]2C[C@@H](c3cccn3-c3ccccn3)N3CCC[C@@]23C1=O | > 48.4 µg/mL |
| CC(=O)c1ccc(Nc2nc(-c3cccnc3)cs2)cc1 | 0.9 µg/mL (≈ 3.05 µM) |
| COc1ccc(NC(=O)CN(c2c(C)cccc2C)S(C)(=O)=O)cc1 | 48.1 µg/mL (≈ 133 µM) |
| O=C(CSc1ncnc2ccccc12)c1ccco1 | > 40.5 µg/mL |
| CCOc1ccccc1NS(=O)(=O)c1ccc2[nH]c(=O)[nH]c2c1 | > 50 µg/mL |
| Cc1ccc2c(c1)C1CN(C)CCC1N2S(=O)(=O)c1ccccc1F (configuration not stated) | > 54.1 µg/mL |
| Fc1ccc(CNCc2ccco2)cc1 | 11.8 µg/mL (≈ 57.5 µM) |
| CC1CCN(CC(O)COC2CC(C)CC(C)(C)C2)CC1.Cl (configuration not stated) | 45.5 µg/mL |
| COc1ccccc1CC(=O)NC1CCN(Cc2ccccc2)CC1 | > 50.8 µg/mL |
| COc1ccccc1C(C)NCC(=O)NCc1ccc(C)cc1 (configuration not stated) | > 46.9 µg/mL |
| COc1ccc(CC(=O)OCc2csc(CC(=O)Nc3ccc(C)cc3)n2)cc1 | 4.8 µg/mL (≈ 11.7 µM) |
| COc1ccc(NC(=O)CN2CCN(CC#N)CC2)cc1 | > 43.3 µg/mL |

| SMILES | solubility kinetic |
| --- | --- |
| C=CCOc1ccccc1CN1CCCN(C)CC1 | 27.8 µg/mL (≈ 107 µM) |
| O=C(COC(=O)/C=C/c1ccccc1[N+](=O)[O-])NC(=O)NC1CCCC1 | 7.7 µg/mL (≈ 21.3 µM) |
| CCc1nnc(SCC(=O)NC2CC2)n1CC | > 38.2 µg/mL |
| CCOC(=O)N1CCN(C(=O)c2cc3cc(C)ccc3[nH]2)CC1 | 41.6 µg/mL (≈ 132 µM) |
| O=C(c1ccc2c(c1)OCCCO2)N1CCCCC1 | 28.6 µg/mL (≈ 109 µM) |
| CCC(CC)C(=O)Nc1ccncc1 | 10.9 µg/mL (≈ 56.7 µM) |
| CS(=O)(=O)N(CC(=O)N1CCCC1)c1ccccc1Br | > 54.2 µg/mL |
| COc1cc2ccccc2cc1C(=O)N1CCCC1 | > 38.3 µg/mL |
| O=C(NC1CCCCC1)c1c2c(nc3ccccc13)CCC2 | 25.9 µg/mL (≈ 88 µM) |
| Cl.N=C(N)N1CCc2ccccc21 | 28.1 µg/mL |
| COc1ccc(OC)c(C2NC(=O)CCC2[N+](=O)[O-])c1 (configuration not stated) | 40.1 µg/mL (≈ 143 µM) |
| O=C(Nc1ccc(Br)cc1)c1cc(-c2ccncc2)nc2ccccc12 | 5.8 µg/mL (≈ 14.3 µM) |
| Cc1ccc(NC(=O)COC(=O)CCNS(=O)(=O)c2c(Cl)cccc2Cl)cc1 | 48.5 µg/mL (≈ 109 µM) |
| c1ccc2c(Cn3ccnc3)cccc2c1 | 30.2 µg/mL (≈ 145 µM) |
| O=C(CN1CCN(c2ccccn2)CC1)Nc1cc(F)ccc1F | > 49.9 µg/mL |
| NS(=O)(=O)c1cccc(NC(=O)COC(=O)CSCc2ccccc2)c1 | > 59.2 µg/mL |
| CSc1ncc(C(C)=O)c(C)n1 | > 27.3 µg/mL |
| COc1ccc(S(=O)(=O)N2CCSCC2)cc1C(N)=O | 25 µg/mL (≈ 79 µM) |
| CC(C)c1ccc(C(C)NC(=O)C2CCCC2)cc1 (configuration not stated) | 2.6 µg/mL (≈ 10 µM) |
| CS(=O)(=O)c1ccccc1C(=O)Nc1nc2ccccc2[nH]1 | > 47.3 µg/mL |
| Cc1cc(C)c(S(=O)(=O)c2cccc(Cl)c2)c(=O)[nH]1 | > 44.7 µg/mL |
| O=C(Nc1ccccc1Cl)c1ccc2nccnc2c1 | > 42.6 µg/mL |
